Experimental data published in the NIST ThermoML archive (doi:10.1016/j.jct.2005.10.019).
Numbers after ± are expanded uncertainties.

What was measured:
[1] = excess molar enthalpy (molar enthalpy of mixing); xn = mol fraction of the nth substance listed; conditions: 298.15 K, 101 kPa, Liquid
[2] = 298.15 K; 101.33 kPa; Liquid

C[C@H](O)c1ccccc1 [(S)-(-)-1-phenylethanol] + C[C@@H](O)c1ccccc1
[1]
Conditions | excess molar enthalpy [kcal/mol]
x1 = 0.07558 | 0.000755 ± 0.000131
x1 = 0.09137 | 0.000905 ± 0.000134
x1 = 0.1405 | 0.00127 ± 0.000134
x1 = 0.1675 | 0.0015 ± 0.000136
x1 = 0.197 | 0.00168 ± 0.000136
x1 = 0.2318 | 0.00184 ± 0.000136
x1 = 0.2464 | 0.00196 ± 0.000139
x1 = 0.2869 | 0.00213 ± 0.000139
x1 = 0.2902 | 0.00216 ± 0.000139
x1 = 0.3291 | 0.0023 ± 0.000139
x1 = 0.3346 | 0.0023 ± 0.000139
x1 = 0.364 | 0.00241 ± 0.000141
x1 = 0.3763 | 0.0024 ± 0.000141
x1 = 0.3954 | 0.00247 ± 0.000141
x1 = 0.4131 | 0.00246 ± 0.000141
x1 = 0.4239 | 0.00251 ± 0.000141
x1 = 0.4458 | 0.0025 ± 0.000141
x1 = 0.4498 | 0.00253 ± 0.000141
x1 = 0.4751 | 0.00252 ± 0.000141
x1 = 0.4753 | 0.00249 ± 0.000141
x1 = 0.497 | 0.00252 ± 0.000141
x1 = 0.5014 | 0.00252 ± 0.000141
x1 = 0.5208 | 0.00254 ± 0.000141
x1 = 0.5252 | 0.00251 ± 0.000141
x1 = 0.5469 | 0.0025 ± 0.000141
x1 = 0.547 | 0.00253 ± 0.000141
x1 = 0.5668 | 0.00252 ± 0.000141
x1 = 0.576 | 0.00251 ± 0.000141
x1 = 0.5993 | 0.00251 ± 0.000141
x1 = 0.6083 | 0.00247 ± 0.000141
x1 = 0.6357 | 0.00241 ± 0.000141
x1 = 0.6443 | 0.00238 ± 0.000141
x1 = 0.6768 | 0.00229 ± 0.000139
x1 = 0.6849 | 0.00227 ± 0.000139
x1 = 0.7235 | 0.00214 ± 0.000139
x1 = 0.731 | 0.00209 ± 0.000139
x1 = 0.7773 | 0.0019 ± 0.000139
x1 = 0.7837 | 0.00183 ± 0.000136
x1 = 0.8396 | 0.00144 ± 0.000136
x1 = 0.8446 | 0.00149 ± 0.000136
x1 = 0.9128 | 0.000857 ± 0.000134
x1 = 0.9158 | 0.000837 ± 0.000134

COC(=O)[C@@H](C)CO [(2S)-3-hydroxy-2-methyl-propanoic acid methyl ester]
Conditions | mass density [kg/m3]
[2] | 1069.6 ± 0.2

ClC[C@H]1CO1 [(2R)-(chloromethyl)-oxirane]
Conditions | mass density [kg/m3]
[2] | 1093.3 ± 1.3

C[C@H](N)c1ccccc1 [(S)-(-)-αmethylbenzylamine]
Conditions | mass density [kg/m3]
[2] | 965.49 ± 0.16

C[C@H](O)c1ccccc1 [(S)-(-)-1-phenylethanol]
Conditions | mass density [kg/m3]
[2] | 1012.3 ± 1.1

C[C@@H]1COC(=O)O1 [(R)-4-methyl-1,3-dioxolan-2-one]
Conditions | mass density [kg/m3]
[2] | 1199.4 ± 0.3

C[C@@H](NCc1ccccc1)c1ccccc1 [(R)-(+)-N-benzyl-1-phenylethylamine]
Conditions | mass density [kg/m3]
[2] | 1007.7 ± 0.2

ClC[C@@H]1CO1 [(2S)-chloromethyl-oxirane]
Conditions | mass density [kg/m3]
[2] | 1093.5 ± 1.3

COC(=O)[C@H](C)CO [(2R)-3-hydroxy-2-methyl-propanoic acid methyl ester] + COC(=O)[C@@H](C)CO
[1]
Conditions | excess molar enthalpy [kcal/mol]
x2 = 0.08854 | 0.000741 ± 0.000124
x2 = 0.08893 | 0.000787 ± 0.000124
x2 = 0.08959 | 0.00072 ± 0.000124
x2 = 0.1627 | 0.00131 ± 0.000127
x2 = 0.1633 | 0.00127 ± 0.000127
x2 = 0.1645 | 0.0013 ± 0.000127
x2 = 0.2257 | 0.00171 ± 0.000129
x2 = 0.2265 | 0.00168 ± 0.000129
x2 = 0.2279 | 0.00172 ± 0.000129
x2 = 0.2798 | 0.00199 ± 0.000129
x2 = 0.2808 | 0.00198 ± 0.000129
x2 = 0.2825 | 0.002 ± 0.000129
x2 = 0.3269 | 0.00218 ± 0.000131
x2 = 0.328 | 0.00217 ± 0.000131
x2 = 0.3298 | 0.00221 ± 0.000131
x2 = 0.3682 | 0.00232 ± 0.000131
x2 = 0.3693 | 0.00231 ± 0.000131
x2 = 0.3713 | 0.00234 ± 0.000131
x2 = 0.4048 | 0.00241 ± 0.000131
x2 = 0.4059 | 0.00239 ± 0.000131
x2 = 0.4079 | 0.00242 ± 0.000131
x2 = 0.4373 | 0.00247 ± 0.000131
x2 = 0.4385 | 0.00246 ± 0.000131
x2 = 0.4405 | 0.00248 ± 0.000131
x2 = 0.4665 | 0.00251 ± 0.000131
x2 = 0.4677 | 0.00249 ± 0.000131
x2 = 0.4697 | 0.0025 ± 0.000131
x2 = 0.4928 | 0.00251 ± 0.000131
x2 = 0.4939 | 0.0025 ± 0.000131
x2 = 0.496 | 0.0025 ± 0.000131
x2 = 0.5037 | 0.00253 ± 0.000131
x2 = 0.5048 | 0.00253 ± 0.000131
x2 = 0.53 | 0.00252 ± 0.000131
x2 = 0.5311 | 0.00252 ± 0.000131
x2 = 0.5592 | 0.00248 ± 0.000131
x2 = 0.5602 | 0.00249 ± 0.000131
x2 = 0.5918 | 0.00242 ± 0.000131
x2 = 0.5928 | 0.00243 ± 0.000131
x2 = 0.6285 | 0.00233 ± 0.000131
x2 = 0.6294 | 0.00233 ± 0.000131
x2 = 0.6699 | 0.00218 ± 0.000131
x2 = 0.6709 | 0.00218 ± 0.000131
x2 = 0.7173 | 0.00196 ± 0.000129
x2 = 0.7182 | 0.00198 ± 0.000129
x2 = 0.7718 | 0.00167 ± 0.000127
x2 = 0.7726 | 0.00168 ± 0.000129
x2 = 0.8354 | 0.00125 ± 0.000127
x2 = 0.836 | 0.00126 ± 0.000127
x2 = 0.9103 | 0.000702 ± 0.000124
x2 = 0.9107 | 0.000702 ± 0.000124

COC(=O)[C@H](C)CO [(2R)-3-hydroxy-2-methyl-propanoic acid methyl ester]
Conditions | mass density [kg/m3]
[2] | 1067.5 ± 0.2

C[C@H](NCc1ccccc1)c1ccccc1 [(S)-N-benzyl-1-phenylethylamine] + C[C@@H](NCc1ccccc1)c1ccccc1
[1]
Conditions | excess molar enthalpy [kcal/mol]
x1 = 0.05697 | -0.000214 ± 0.000122
x1 = 0.09481 | -0.00033 ± 0.000122
x1 = 0.1905 | -0.000609 ± 0.000122
x1 = 0.2961 | -0.000821 ± 0.000124
x1 = 0.4009 | -0.000962 ± 0.000124
x1 = 0.5331 | -0.00102 ± 0.000124
x1 = 0.5712 | -0.00101 ± 0.000124
x1 = 0.6151 | -0.000962 ± 0.000124
x1 = 0.7271 | -0.000831 ± 0.000124
x1 = 0.7998 | -0.000686 ± 0.000124
x1 = 0.8805 | -0.000439 ± 0.000122
x1 = 0.9576 | -0.000186 ± 0.00012

C[C@H]1COC(=O)O1 [(S)-4-methyl-1,3-dioxolan-2-one]
Conditions | mass density [kg/m3]
[2] | 1199.5 ± 0.3

CCCC(=O)OC[C@@H]1CO1 [S-(-)-glycidyl butyrate]
Conditions | mass density [kg/m3]
[2] | 1029.7 ± 0.9

C[C@@H](O)c1ccccc1 [(R)-(+)-1-phenylethanol]
Conditions | mass density [kg/m3]
[2] | 1012.4 ± 1.1

CCCC(=O)OC[C@H]1CO1 [R(-)-2,3-epoxypropyl butanoate]
Conditions | mass density [kg/m3]
[2] | 1036.3 ± 1
